Results taken from ChEMBL document CHEMBL4507274 (2021).

Key:
[1] = target: Receptor-interacting serine/threonine-protein kinase 1 (Homo sapiens) (UniProt Q13546); settings: Compound concentration 100.0 nM
[2] = target: Tyrosine-protein kinase receptor UFO (Homo sapiens) (UniProt P30530); settings: Compound concentration 100.0 nM
[3] = target: Serine/threonine-protein kinase Nek11 (Homo sapiens) (UniProt Q8NG66); settings: Compound concentration 100.0 nM
[4] = target: Angiopoietin-1 receptor (Homo sapiens) (UniProt Q02763); settings: Compound concentration 100.0 nM
[5] = target: MAP/microtubule affinity-regulating kinase 4 (Homo sapiens) (UniProt Q96L34); settings: Compound concentration 100.0 nM
[6] = target: Macrophage colony-stimulating factor 1 receptor (Homo sapiens) (UniProt P07333); settings: Compound concentration 100.0 nM
[7] = tested on: Mast/stem cell growth factor receptor Kit (Homo sapiens), P10721 [D816H]; settings: Compound concentration 100.0 nM
[8] = target: Myosin light chain kinase 2, skeletal/cardiac muscle (Homo sapiens) (UniProt Q9H1R3); settings: Compound concentration 100.0 nM
[9] = tested on: Proto-oncogene tyrosine-protein kinase receptor Ret (Homo sapiens), P07949 [V804M]; settings: Compound concentration 100.0 nM
[10] = target: Phosphatidylinositol 5-phosphate 4-kinase type-2 gamma (Homo sapiens) (UniProt Q8TBX8); settings: Compound concentration 100.0 nM
[11] = target: Calcium/calmodulin-dependent protein kinase kinase 2 (Homo sapiens) (UniProt Q96RR4); settings: Compound concentration 100.0 nM
[12] = target: TRAF2 and NCK-interacting protein kinase (Homo sapiens) (UniProt Q9UKE5); settings: Compound concentration 100.0 nM
[13] = tested on: Phosphatidylinositol 4,5-bisphosphate 3-kinase catalytic subunit alpha isoform (Homo sapiens), P42336 [Q546K]; settings: Compound concentration 100.0 nM
[14] = target: Serine/threonine-protein kinase NIM1 (Homo sapiens) (UniProt Q8IY84); settings: Compound concentration 100.0 nM
[15] = target: Ephrin type-A receptor 1 (Homo sapiens) (UniProt P21709); settings: Compound concentration 100.0 nM
[16] = tested on: Phosphatidylinositol 4,5-bisphosphate 3-kinase catalytic subunit alpha isoform (Homo sapiens), P42336 [I800L]; settings: Compound concentration 100.0 nM
[17] = target: Mitogen-activated protein kinase 11 (Homo sapiens) (UniProt Q15759); settings: Compound concentration 100.0 nM
[18] = target: Cyclin-dependent kinase 4 (Homo sapiens) (UniProt P11802); settings: Compound concentration 100.0 nM
[19] = target: Receptor tyrosine-protein kinase erbB-2 (Homo sapiens) (UniProt P04626); settings: Compound concentration 100.0 nM
[20] = tested on: Phosphatidylinositol 4,5-bisphosphate 3-kinase catalytic subunit alpha isoform (Homo sapiens), P42336 [E545A]; settings: Compound concentration 100.0 nM
[21] = target: NUAK family SNF1-like kinase 1 (Homo sapiens) (UniProt O60285); settings: Compound concentration 100.0 nM
[22] = tested on: ALK tyrosine kinase receptor (Homo sapiens), Q9UM73 [L1196M]; settings: Compound concentration 100.0 nM
[23] = target: Serine/threonine-protein kinase PLK4 (Homo sapiens) (UniProt O00444); settings: Compound concentration 100.0 nM
[24] = target: Homeodomain-interacting protein kinase 3 (Homo sapiens) (UniProt Q9H422); settings: Compound concentration 100.0 nM
[25] = tested on: Mast/stem cell growth factor receptor Kit (Homo sapiens), P10721 [A829P]; settings: Compound concentration 100.0 nM
[26] = target: Kappa-type opioid receptor (Homo sapiens, UniProt P41145); assay: GPCRScan assay: inhibition of KOR; parameters: radioligand conc. used [nm] 0.6 – 1.2, parental cells stable HEK
[27] = target: cAMP-dependent protein kinase catalytic subunit alpha (Homo sapiens) (UniProt P17612); settings: Compound concentration 100.0 nM
[28] = target: T1, Cytoplasmic tyrosine-protein kinase BMX (Homo sapiens) (UniProt P51813); settings: Compound concentration 100.0 nM
T1 sequence (whole entry): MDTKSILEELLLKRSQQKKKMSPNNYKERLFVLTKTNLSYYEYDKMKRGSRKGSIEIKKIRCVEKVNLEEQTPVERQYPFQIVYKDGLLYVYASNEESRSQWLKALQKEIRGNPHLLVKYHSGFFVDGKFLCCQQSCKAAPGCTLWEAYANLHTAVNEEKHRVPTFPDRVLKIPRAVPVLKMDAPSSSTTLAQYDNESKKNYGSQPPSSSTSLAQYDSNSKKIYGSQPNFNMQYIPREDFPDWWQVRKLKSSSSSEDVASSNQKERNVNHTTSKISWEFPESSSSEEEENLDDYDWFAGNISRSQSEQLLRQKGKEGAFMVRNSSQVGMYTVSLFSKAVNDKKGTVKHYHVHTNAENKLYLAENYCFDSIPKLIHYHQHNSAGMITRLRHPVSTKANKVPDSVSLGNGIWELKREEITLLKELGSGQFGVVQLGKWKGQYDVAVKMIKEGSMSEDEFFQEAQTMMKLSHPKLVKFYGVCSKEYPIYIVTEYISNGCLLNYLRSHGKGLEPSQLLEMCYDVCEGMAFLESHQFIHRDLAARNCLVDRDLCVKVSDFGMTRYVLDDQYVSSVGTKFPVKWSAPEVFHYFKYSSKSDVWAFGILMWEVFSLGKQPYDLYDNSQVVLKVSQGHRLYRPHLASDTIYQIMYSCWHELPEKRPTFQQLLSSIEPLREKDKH

[29] = target: Dual specificity tyrosine-phosphorylation-regulated kinase 2 (Homo sapiens) (UniProt Q92630); settings: Compound concentration 100.0 nM
[30] = target: Aurora kinase B (Homo sapiens) (UniProt Q96GD4); settings: Compound concentration 100.0 nM
[31] = target: Serine/threonine-protein kinase 33 (Homo sapiens) (UniProt Q9BYT3); settings: Compound concentration 100.0 nM
[32] = target: Serine/threonine-protein kinase PLK2 (Homo sapiens) (UniProt Q9NYY3); settings: Compound concentration 100.0 nM
[33] = target: Myosin light chain kinase, smooth muscle (Homo sapiens) (UniProt Q15746); settings: Compound concentration 100.0 nM
[34] = target: Serine/threonine-protein kinase DCLK1 (Homo sapiens) (UniProt O15075); settings: Compound concentration 100.0 nM
[35] = target: Ephrin type-A receptor 3 (Homo sapiens) (UniProt P29320); settings: Compound concentration 100.0 nM
[36] = target: Dual specificity mitogen-activated protein kinase kinase 1 (Homo sapiens) (UniProt Q02750); settings: Compound concentration 100.0 nM
Dual specificity mitogen-activated protein kinase kinase 1 (Homo sapiens), sequence (Q02750 whole entry): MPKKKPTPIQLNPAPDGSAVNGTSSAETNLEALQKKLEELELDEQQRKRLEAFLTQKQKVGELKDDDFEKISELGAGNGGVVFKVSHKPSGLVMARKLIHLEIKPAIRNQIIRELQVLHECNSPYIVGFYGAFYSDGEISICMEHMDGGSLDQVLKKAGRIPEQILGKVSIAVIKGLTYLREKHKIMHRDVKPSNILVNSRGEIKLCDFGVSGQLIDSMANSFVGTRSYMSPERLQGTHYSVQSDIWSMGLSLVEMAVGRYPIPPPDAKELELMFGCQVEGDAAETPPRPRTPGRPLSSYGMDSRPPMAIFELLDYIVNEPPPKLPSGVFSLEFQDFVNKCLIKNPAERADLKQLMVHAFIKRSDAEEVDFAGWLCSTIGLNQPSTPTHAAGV

ALK tyrosine kinase receptor (Homo sapiens), Q9UM73 [L1196M], sequence (Q9UM73 whole entry L1196M, looked up): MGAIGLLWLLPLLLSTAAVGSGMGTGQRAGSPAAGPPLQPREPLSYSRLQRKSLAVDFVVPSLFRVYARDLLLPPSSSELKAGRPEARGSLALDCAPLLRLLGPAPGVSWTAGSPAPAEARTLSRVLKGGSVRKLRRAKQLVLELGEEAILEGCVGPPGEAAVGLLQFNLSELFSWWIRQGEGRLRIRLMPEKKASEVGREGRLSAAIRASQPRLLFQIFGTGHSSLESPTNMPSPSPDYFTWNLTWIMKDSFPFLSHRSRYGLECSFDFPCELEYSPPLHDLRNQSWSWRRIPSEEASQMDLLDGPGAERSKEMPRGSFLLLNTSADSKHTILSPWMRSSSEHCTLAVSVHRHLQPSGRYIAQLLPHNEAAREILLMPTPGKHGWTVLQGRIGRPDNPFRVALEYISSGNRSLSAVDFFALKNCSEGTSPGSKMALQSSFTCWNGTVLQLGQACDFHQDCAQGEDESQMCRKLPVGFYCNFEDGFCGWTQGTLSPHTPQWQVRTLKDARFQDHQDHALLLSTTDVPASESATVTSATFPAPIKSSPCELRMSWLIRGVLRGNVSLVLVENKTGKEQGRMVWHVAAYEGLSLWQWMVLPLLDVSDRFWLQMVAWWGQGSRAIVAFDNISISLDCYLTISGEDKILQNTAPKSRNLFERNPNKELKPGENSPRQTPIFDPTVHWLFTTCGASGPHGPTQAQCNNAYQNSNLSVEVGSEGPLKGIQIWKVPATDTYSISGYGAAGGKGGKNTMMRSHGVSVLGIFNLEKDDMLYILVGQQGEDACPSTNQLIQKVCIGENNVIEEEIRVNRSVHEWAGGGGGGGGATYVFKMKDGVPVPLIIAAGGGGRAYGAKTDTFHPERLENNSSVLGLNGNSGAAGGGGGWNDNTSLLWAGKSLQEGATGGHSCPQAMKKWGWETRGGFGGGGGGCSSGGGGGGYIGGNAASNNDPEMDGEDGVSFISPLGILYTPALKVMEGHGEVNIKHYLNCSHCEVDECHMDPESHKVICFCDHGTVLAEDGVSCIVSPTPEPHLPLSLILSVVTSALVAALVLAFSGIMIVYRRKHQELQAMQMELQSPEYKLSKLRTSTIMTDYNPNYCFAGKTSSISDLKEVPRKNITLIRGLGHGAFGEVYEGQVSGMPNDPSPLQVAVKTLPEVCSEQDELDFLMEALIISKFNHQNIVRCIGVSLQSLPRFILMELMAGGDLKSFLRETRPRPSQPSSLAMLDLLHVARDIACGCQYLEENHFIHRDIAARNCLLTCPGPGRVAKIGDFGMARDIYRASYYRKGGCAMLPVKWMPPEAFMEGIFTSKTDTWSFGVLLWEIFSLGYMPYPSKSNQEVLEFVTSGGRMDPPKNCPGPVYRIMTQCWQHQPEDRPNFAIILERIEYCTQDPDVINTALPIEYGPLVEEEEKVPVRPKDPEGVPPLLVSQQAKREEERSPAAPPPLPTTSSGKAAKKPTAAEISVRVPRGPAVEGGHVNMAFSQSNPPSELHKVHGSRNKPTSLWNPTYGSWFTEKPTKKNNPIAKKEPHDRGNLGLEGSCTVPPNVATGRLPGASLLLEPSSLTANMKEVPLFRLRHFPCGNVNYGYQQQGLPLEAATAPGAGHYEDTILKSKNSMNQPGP
Cyclin-dependent kinase 4 (Homo sapiens), sequence (P11802 whole entry): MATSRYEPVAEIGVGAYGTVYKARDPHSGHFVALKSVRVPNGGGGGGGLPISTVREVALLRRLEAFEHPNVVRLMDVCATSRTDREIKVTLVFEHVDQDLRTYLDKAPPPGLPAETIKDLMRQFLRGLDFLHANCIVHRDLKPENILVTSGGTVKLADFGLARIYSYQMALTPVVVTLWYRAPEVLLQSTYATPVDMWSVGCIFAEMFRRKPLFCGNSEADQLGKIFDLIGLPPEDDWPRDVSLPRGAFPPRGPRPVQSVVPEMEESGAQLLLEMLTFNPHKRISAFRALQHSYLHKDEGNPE
NUAK family SNF1-like kinase 1 (Homo sapiens), sequence (O60285 whole entry): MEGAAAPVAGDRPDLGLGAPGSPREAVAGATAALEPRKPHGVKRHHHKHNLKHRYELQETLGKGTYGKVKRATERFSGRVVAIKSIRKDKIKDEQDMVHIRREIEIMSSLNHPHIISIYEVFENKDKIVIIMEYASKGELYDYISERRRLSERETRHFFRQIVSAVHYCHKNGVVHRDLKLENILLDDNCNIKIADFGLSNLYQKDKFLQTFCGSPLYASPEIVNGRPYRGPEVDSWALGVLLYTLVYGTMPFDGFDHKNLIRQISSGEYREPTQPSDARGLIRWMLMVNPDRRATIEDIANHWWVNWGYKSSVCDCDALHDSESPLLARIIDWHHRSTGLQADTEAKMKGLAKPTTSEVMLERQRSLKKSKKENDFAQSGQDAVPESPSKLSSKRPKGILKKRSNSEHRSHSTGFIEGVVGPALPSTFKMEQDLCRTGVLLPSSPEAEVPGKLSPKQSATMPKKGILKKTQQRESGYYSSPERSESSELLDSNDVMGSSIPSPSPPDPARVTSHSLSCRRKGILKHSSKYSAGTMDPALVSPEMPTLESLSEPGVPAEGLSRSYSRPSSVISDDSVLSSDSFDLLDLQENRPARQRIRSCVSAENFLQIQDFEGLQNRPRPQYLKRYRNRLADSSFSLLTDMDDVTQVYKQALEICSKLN
Proto-oncogene tyrosine-protein kinase receptor Ret (Homo sapiens), P07949 [V804M], sequence (P07949 whole entry V804M): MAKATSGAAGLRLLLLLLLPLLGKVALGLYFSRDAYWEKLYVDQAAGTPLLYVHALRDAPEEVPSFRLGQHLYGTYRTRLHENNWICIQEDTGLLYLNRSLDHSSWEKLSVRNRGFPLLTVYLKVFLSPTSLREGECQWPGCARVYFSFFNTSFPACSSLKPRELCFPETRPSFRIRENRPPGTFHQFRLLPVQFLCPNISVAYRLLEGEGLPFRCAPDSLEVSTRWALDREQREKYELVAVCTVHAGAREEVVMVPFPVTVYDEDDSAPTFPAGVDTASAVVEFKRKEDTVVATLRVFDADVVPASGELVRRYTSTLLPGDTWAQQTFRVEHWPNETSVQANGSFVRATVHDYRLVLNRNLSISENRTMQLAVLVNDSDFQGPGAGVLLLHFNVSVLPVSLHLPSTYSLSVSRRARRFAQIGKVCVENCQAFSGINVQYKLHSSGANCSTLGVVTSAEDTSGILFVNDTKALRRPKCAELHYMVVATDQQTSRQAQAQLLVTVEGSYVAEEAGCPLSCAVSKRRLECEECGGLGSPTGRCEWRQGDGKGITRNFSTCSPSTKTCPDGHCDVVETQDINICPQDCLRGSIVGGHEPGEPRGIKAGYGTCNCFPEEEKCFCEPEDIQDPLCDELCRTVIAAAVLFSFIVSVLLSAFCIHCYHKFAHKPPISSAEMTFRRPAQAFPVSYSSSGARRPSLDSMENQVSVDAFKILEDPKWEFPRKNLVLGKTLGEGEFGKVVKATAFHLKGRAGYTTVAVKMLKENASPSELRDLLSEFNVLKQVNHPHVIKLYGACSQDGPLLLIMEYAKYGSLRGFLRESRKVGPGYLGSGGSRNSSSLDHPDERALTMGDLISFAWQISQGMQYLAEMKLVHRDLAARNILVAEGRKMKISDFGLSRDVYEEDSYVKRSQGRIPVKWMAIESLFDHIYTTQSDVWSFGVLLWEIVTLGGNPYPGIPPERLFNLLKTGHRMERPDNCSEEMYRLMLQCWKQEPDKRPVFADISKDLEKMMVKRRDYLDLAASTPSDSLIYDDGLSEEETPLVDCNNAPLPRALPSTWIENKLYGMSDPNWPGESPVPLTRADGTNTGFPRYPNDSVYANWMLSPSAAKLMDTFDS
Dual specificity tyrosine-phosphorylation-regulated kinase 2 (Homo sapiens), sequence (Q92630 whole entry): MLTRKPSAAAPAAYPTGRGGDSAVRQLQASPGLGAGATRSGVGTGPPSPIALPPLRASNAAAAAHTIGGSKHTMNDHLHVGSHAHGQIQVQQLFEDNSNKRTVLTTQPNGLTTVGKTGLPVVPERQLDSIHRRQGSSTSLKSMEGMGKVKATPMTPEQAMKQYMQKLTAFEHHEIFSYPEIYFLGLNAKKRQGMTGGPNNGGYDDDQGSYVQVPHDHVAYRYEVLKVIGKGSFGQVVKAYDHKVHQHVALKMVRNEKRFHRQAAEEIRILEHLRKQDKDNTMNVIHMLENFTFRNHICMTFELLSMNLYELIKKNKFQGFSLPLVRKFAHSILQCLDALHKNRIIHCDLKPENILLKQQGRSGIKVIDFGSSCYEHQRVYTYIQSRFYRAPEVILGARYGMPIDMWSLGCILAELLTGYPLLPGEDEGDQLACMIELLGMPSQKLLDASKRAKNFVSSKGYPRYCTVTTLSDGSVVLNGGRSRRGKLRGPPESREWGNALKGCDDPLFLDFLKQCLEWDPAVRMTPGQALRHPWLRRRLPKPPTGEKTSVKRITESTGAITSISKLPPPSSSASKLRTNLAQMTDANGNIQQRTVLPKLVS
Mitogen-activated protein kinase 11 (Homo sapiens), sequence (Q15759 whole entry): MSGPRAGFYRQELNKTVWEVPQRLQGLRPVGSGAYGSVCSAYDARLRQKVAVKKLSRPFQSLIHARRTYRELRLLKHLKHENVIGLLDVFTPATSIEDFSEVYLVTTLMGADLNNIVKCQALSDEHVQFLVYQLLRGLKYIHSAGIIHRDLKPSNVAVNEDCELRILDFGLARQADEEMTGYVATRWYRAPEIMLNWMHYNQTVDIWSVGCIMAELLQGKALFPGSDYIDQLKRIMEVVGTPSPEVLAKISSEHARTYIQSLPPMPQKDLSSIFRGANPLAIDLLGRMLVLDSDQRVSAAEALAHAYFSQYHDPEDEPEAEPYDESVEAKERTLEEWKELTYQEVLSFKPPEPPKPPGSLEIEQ

Row | Compound | residual activity [1] [%] | residual activity [2] [%] | residual activity [3] [%] | residual activity [4] [%] | residual activity [5] [%] | residual activity [6] [%] | residual activity [7] [%] | residual activity [8] [%] | residual activity [9] [%] | residual activity [10] [%] | residual activity [11] [%] | residual activity [12] [%] | residual activity [13] [%] | residual activity [14] [%] | residual activity [15] [%] | residual activity [16] [%] | residual activity [17] [%] | residual activity [18] [%] | residual activity [19] [%] | residual activity [20] [%] | other results
1 | Cc1c[nH]c2nccc(Oc3c(F)cc(Nc4cc(Cl)nc(N)n4)cc3F)c12 [BAY-549] | 100 | 93 | 75 | 95 | 100 | 100 | 95 | 98 | 100 | 100 | 98 | 100 | 76 | 75 | 100 | 90 | 97 | 100 | 99 | 88 | residual activity [21]: 91%; residual activity [22]: 99%; residual activity [23]: 82%; residual activity [24]: 92%; residual activity [25]: 70%; Ki [26]: 187 nM; residual activity [27]: 28%; residual activity [28]: 100%; residual activity [29]: 100%; residual activity [30]: 82%; residual activity [31]: 85%; residual activity [32]: 59%; residual activity [33]: 80%; residual activity [34]: 65%; residual activity [35]: 97%; residual activity [36]: 81%
2 | Cn1cc(Cl)c2c(Oc3c(F)cc(Nc4cc(Cl)nc(N)n4)cc3F)ccnc21 [BAY-4900] | 100 | 100 | 85 | 100 | 100 | 89 | 79 | 99 | 95 | 96 | 99 | 96 | 76 | 93 | 100 | 82 | 100 | 100 | 95 | 88 | residual activity [21]: 96%; residual activity [22]: 100%; residual activity [23]: 83%; residual activity [24]: 80%; residual activity [25]: 63%; Ki [26]: 391 nM; residual activity [27]: 90%; residual activity [28]: 97%; residual activity [29]: 100%; residual activity [30]: 78%; residual activity [31]: 100%; residual activity [32]: 83%; residual activity [33]: 95%; residual activity [34]: 85%; residual activity [35]: 83%; residual activity [36]: 90%
